Experimental data published in patent publication EP2281824A1, “Furan-imidazolone derivatives, for the treatment of cognitive, neurodegenerative or neuronal diseases or disorders” (NOSCIRA, S.A., priority 2009, dated 2011).
pIC50: −log10 of the molar value.

Legend:
[1] = biological target: T1, BACE-1 β-Secretase recombinant human enzyme (Homo sapiens, UniProt P56817); test: BACE assay (time-resolved fluorescence, TruPoint BACE1 substrate); format: biochemical; conditions: 200 nM peptide substrate, 8 nM enzyme, sodium acetate pH 4.5, 1 h at room temperature; read-out: IC50 Inhibition of BACE Activity
T1 construct: purchased R&D Systems
Description: This assay is based on time-resolved fluorescence ("TRF") technology, using a. BACE peptide substrate containing a fluorescent europium chelate coupled to one end and a quencher coupled to the other end. […] The reagents which are used in this assay are BACE-1 β-Secretase recombinant human enzyme (R&D Systems, Minneapolis, MN), TruPoint™ BACE1 substrate (Perkin Elmer Waltham, MA), sodium acetate, CHAPS and EDTA (Sigma Aldrich, St Louis, MO). The assay is carried out in a 96-well microplate in a final volume of 100 µl using 200 nM peptide substrate and 8 nM enzyme in 50 mM sodium acetate pH 4.5 with 1 mM EDTA and 0.2% (w/v) CHAPS. The plates are incubated for 1 h in the dark at room temperature and then read in a fluorimeter plate reader provided with time-resolved fluorescence capabilities (PolarStar Optima™, BMG-Labtech, Offenburg, Germany) using 337 nm as excitation wavelength and 615 nm as the emission wavelength. Compounds are tested in duplicate using a concentration range extending from 5 nM to 100 µM, using 10 µM H-4848 (commercial BACE inhibitor, BACHEM, Bubendorf, Switzerland) as control.
The compounds of formula (I) of the present invention where submitted to the above indicated assay, in order to determine their BACE activity inhibition. The results, indicated in IC50 format, are indicated below in Table I. IC50 is the half maximal inhibitory concentration, which is a measure of the effectiveness of a compound in inhibiting biological or biochemical function. This quantitative measure indicates the concentration of a particular substance is needed to inhibit a given biological process by half. In other words, it is the half maximal (50%) inhibitory concentration (IC) of a substance.

[2] = test system: Aβ secretion; test: Inhibition of beta-amyloid secretion (Aβ1-40 ELISA of cell culture supernatants); format: cell-based; conditions: CHO-7W; CHO7w cell line stably transfected with human BACE, 48 hours, Aβ (1-40) in supernatants
Description: To quantify human Aβ1-40 an ELISA-based commercial kit was used (Immunoassay Kit Human β Amyloid 1-40, The Genetics Company, Schlieren, Switzerland). Aβ (1-40) peptide was quantified from cell culture supernatants using a CHO7w cell line stably transfected with human BACE. β-Secretase inhibitor IV (Calbiochem, San Diego, CA), was used as Aβ secretion reduction positive control in all the Aβ secretion studies. Cells were grown in DMEM supplemented with 2% Foetal bovine serum, 1% penicillin-streptomycin, 1% L-glutamine and 200 µg/ml G418. Cells were seeded in 96-well culture microplates at 5000 cells/well and treated with 10 µM β secretase inhibitor IV or compounds for 48 hours. Then cell culture supernatants were collected and analyzed according to the kit manufacturer's instructions. At 10 µM β-secretase inhibitor IV the inhibition of Aβ secretion inhibition is usually between 70 and 100 %.
Some of the compounds of formula (I) of the present invention where submitted to the above indicated assay, in order to determine their capacity of inhibiting Aβ secretion. The results, indicated in IC50 format, are indicated below in Table I. Table I

T1 sequence (P56817 46-501): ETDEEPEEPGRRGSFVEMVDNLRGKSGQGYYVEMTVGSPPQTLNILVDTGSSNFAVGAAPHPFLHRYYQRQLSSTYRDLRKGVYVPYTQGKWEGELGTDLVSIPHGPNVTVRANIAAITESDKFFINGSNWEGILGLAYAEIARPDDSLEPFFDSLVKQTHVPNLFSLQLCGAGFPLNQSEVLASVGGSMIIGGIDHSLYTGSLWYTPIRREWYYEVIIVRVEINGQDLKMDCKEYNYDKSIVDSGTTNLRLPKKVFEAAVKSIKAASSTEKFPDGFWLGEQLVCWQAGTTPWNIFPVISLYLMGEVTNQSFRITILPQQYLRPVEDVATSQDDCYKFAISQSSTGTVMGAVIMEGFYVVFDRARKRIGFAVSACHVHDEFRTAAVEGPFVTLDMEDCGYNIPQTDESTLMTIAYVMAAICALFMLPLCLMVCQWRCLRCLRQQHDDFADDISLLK

| Structure (SMILES) | pIC50 [1] | pIC50 [2] |
| --- | --- | --- |
| COc1ccc(-c2ccc(C=C3N=C(N)N(C)C3=O)o2)cc1Cl [Compound 2, 2-amino-S-[S-(3-chloro-4-methoxy-phenyl)-furan-2-ylmethylene]-3-methyl-3,5-dihydro-imidazol-4-one] | 6.49 | – |
| COc1ccc(C#N)cc1-c1ccc(C=C2N=C(N)N(C)C2=O)o1 [Compound 11, 3-[5-(2-Amino-1-methyl-5-oxo-1,5-dihydro-imidazol-4-ylidenemethyl)-furan-2-yl]-4-methoxy-benzonitrile] | 6.66 | – |
| Cc1noc(C)c1-c1ccc(C=C2N=C(N)N(C)C2=O)o1 [Compound 16, 2-amino-5-[5-(3,5-dimethyl-isoxazol-4-yl)-furan-2-ylmethylene]-3-methyl-3,5-dihydro-imidazol-4-one] | 5.91 | – |
| COc1ccc(-c2ccc(C=C3N=C(N)NC3=O)o2)cc1Cl [Compound 10, 2-Amino-5-[5-(3-chloro-4-methoxy-phenyl)-furan-2-ylmethylene]-3,5-dihydro-imidazol-4-one] | 6.50 | – |
| NC1=NC(=Cc2ccc(-c3ncccn3)o2)C(=O)N1 [Compound 8, 2-amino-5-(5-pyrimidin-2-yl-furan-2-ylmethylene)-3,5-dihydro-imidazol-4-one] | 5.89 | – |
| COC(=O)c1ccc(OC)c(-c2ccc(C=C3N=C(N)NC3=O)o2)c1 [Compound 9, 3-[5-(2-amino-5-oxo-1,5-dihydro-imidazol-4-ylidenemethyl)-furan-2-yl]-4-methoxy-benzoic acid methyl ester] | 6.15 | 4.35 |
| COCCN1C(=O)C(=Cc2ccc(-c3ccc(OC)c(Cl)c3)o2)N=C1N [Compound 13, 2-Amino-5-[5-(3-chloro-4-methoxy-phenyl)-furan-2-ylmethylene]-3-(2-methoxy-ethyl)-3,5-dihydro-imidazol-4-one] | 6.09 | – |
| COc1ncccc1-c1ccc(C=C2N=C(N)N(C)C2=O)o1 [Compound 14, 2-Amino-5-[5-(2-methoxy-pyridin-3-yl)-furan-2-ylmethylene]-3-methyl-3,5-dihydro-imidazol-4-one] | 6.27 | – |

The remaining compounds from weak to strong by pIC50 [1], led by results:

| pIC50 [1] | pIC50 [2] | Structure (SMILES) |
| --- | --- | --- |
| 5.88 | – | COc1ncc(-c2ccc(C=C3N=C(N)NC3=O)o2)c(OC)n1 [Compound 6, 2-amino-5-[5-(2,4-dimethoxy-pyrimidin-5-yl)-furan-2-ylmethylene]-3,5-dihydro-imidazol-4-one] |
| 5.91 | – | COc1ccc(-c2ccc(C=C3N=C(N)N(Cc4ccccc4)C3=O)o2)cc1Cl [Compound 12, 2-Amino-3-benzyl-5-[5-(3-chloro-4-methoxy-phenyl)-furan-2-ylmethylene]-3,5-dihydro-imidazol-4-one] |
| 6.37 | 4.46 | COc1ccc(-c2ccc(C=C3N=C(N)NC3=O)o2)cc1 [Compound 17, 2-Amino-5-[5-(4-methoxy-phenyl)-furan-2-ylmethylene]-3,5-dihydro-imidazol-4-one] |
| 6.40 | – | CN1C(=O)C(=Cc2ccc(-c3ccc([N+](=O)[O-])cc3)o2)N=C1N [Compound 18, Acetate 1-methyl-4-[5-(4-nitro-phenyl)-furan-2-ylmethylene]-5-oxo-4,5-dihydro-1H-imidazol-2-yl-ammonium] |
| 6.41 | – | Cc1noc(C)c1-c1ccc(C=C2N=C(N)NC2=O)o1 [Compound 7, 2-Amino-5-[5-(3,5-dimethyl-isoxazol-4-yl)-furan-2-ylmethylene]-3,5-dihydro-imidazol-4-one] |
| 6.43 | – | COc1ccc(-c2ccc(C=C3N=C(N)NC3=O)o2)c(OC)c1 [Compound 3, 2-amino-5-[5-(2,4-dimethoxy-phenyl)-furan-2-ylmethylene]-3,5-dihydro-imidazol-4-one] |
| 6.44 | 4.40 | COc1ncccc1-c1ccc(C=C2N=C(N)NC2=O)o1 [Compound 5, 2-amino-5-[5-(2-methoxy-pyridin-3-yl)-furan-2-ylmethylene]-3,5-dihydro-imidazol-4-one] |
| 6.46 | – | COc1ccc(-c2ccc(C=C3N=C(N)N(C)C3=O)o2)c(OC)c1 [Compound 15, 2-Amino-5-[5-(2,4-dimethoxy-phenyl)-furan-2-ylmethylene]-3-methyl-3,5-dihydro-imidazol-4-one] |
| 6.60 | 4.52 | NC1=NC(=Cc2ccc(-c3ccc4c(c3)OCO4)o2)C(=O)N1 [Compound 4, 2-amino-5-(5-benzo[1,3]dioxol-5-yl-furan-2-ylmethylene)-3,5-dihydro-imidazol-4-one] |
| 6.96 | – | NC1=NC(=Cc2ccc(-c3ccc([N+](=O)[O-])cc3)o2)C(=O)N1 [Compound 1, 2-amino-5-[5-(4-nitro-phenyl)-furan-2-ylmethylene]-3,5 dihydro-imidazol-4-one] |
